Our source for the solubility and IC50 values is patent EP4775582A1, “MACROCYCLIC COMPOUND AND ANTIBODY-DRUG CONJUGATE THEREOF” (Genfleet Therapeutics (Shanghai) Inc., priority 2023, dated 2025).

≈ marks a conversion by molar mass, not a printed value. Where two headings read alike, the source gives them in different places.

Series [1] can be described thus: Solubility experiment (HPLC, external standard). It is filed as physicochemical. Conditions: pH 7.4, pH 7.4 medium, 37 °C, 24 h. The procedure, abridged:
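Solid compound (about 1 mg per 1 mL medium) was shaken at 37 °C for 24 h in pH 1.2, 4.5 or 7.4 media, then centrifuged and the supernatant diluted with acetonitrile/water 50/50. Concentration in μg/mL was found by HPLC against an external standard prepared from a DMSO stock.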

The next series concerns NCI-H441 cells. In words: 3D cell proliferation assay (CellTiter Glo-3D), NCI-H441. Conditions: Homo sapiens, 120 h, NCI-H441 cells (KRAS G12V), 2% FBS, 5 days, read-out: H441 AP IC50. In kind it is cell-based, human. The procedure, abridged: (§1)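 IC50 values come from four-parameter fits of inhibition rate against log compound concentration, using CellTiter-Glo luminescence read after 5 days' exposure. AsPC-1 and NCI-H441 were plated at 800 cells per well in low-serum (2% FBS) medium. Compound was dosed the day after seeding, with incubation at 37 °C, 5% CO2.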

Another series has as its target KRAS G12V-cRAF (Homo sapiens, UniProt P01116+P62937, G12V). In words: Assay for binding of KRAS to cRAF (HTRF, with Cyclophilin A), KRAS G12V. (TR-FRET usually uses a lanthanide donor and a delayed reading to cut background.)
A further series has as its target KRAS WT-cRAF (Homo sapiens, UniProt P01116+P62937). Briefly: Assay for binding of KRAS to cRAF (HTRF, with Cyclophilin A), KRAS WT.
For a further series, the system named is AsPC-1 cells. In words: 3D cell proliferation assay (CellTiter Glo-3D), AsPC-1. In kind it is cell-based, human. As to conditions: Homo sapiens, ASPC1, 120 h; AsPC-1 cells (KRAS G12D), 3D, 2% FBS, 5 days; read-out: AsPC-1 AP IC50. The procedure, abridged:
as §1
Background: In ATP-based viability assays light output follows the ATP content of the culture.

For a further series, the system named is AsPC-1 p-ERK. In words: Cell p-ERK assay (HTRF), AsPC-1 cells. It is filed as cell-based, human. Conditions: Homo sapiens. The procedure, abridged:
(§2)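 Phospho-ERK (T202/Y204) was measured by HTRF in lysates after 3 h compound treatment at 37 °C. Cells had been plated the previous day at 20000 per well for NCI-H441 and 10000 per well for AsPC-1. Four-parameter dose-response fitting of % inhibition gave IC50 values.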

Another series deals with H441 p-ERK. Briefly: Cell p-ERK assay (HTRF), NCI-H441 cells. As to conditions: Homo sapiens; NCI-H441 cells (KRAS G12V), 3 h incubation. In kind it is cell-based, human. The procedure, abridged: as §2
The mark [2] stands for this setting: read-out: KRAS G12V-cRAF binding assay, GPPNP-KRAS G12V, IC50 values.
[3] abbreviates: read-out: KRAS WT-cRAF binding assay, GPPNP-KRAS WT, IC50 values.
The mark [4] stands for this setting: ASPC1, AsPC-1 cells (KRAS G12D), 3 h incubation, read-out: AsPC-1 p-ERK IC50.
[5] abbreviates: KRAS G12V-cRAF binding assay(nM), GPPNP-KRAS G12V, IC50 values.
Setting [6] is: KRAS WT-cRAF binding assay(nM), GPPNP-KRAS WT, IC50 values.

Sequence of KRAS G12V-cRAF (P01116 1-188 isoform P01116-2 G12V): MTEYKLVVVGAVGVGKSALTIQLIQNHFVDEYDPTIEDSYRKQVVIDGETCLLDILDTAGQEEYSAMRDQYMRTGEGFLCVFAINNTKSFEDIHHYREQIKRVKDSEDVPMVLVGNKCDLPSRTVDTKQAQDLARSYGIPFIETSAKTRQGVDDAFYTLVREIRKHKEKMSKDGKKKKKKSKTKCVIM
Sequence of KRAS G12V-cRAF (P62937 whole entry): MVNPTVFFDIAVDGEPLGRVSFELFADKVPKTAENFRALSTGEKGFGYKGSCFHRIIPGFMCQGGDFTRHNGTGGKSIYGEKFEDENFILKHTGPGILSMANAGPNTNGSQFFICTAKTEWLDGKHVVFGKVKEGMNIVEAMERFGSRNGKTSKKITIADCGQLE
Sequence of KRAS WT-cRAF (P01116 1-188 isoform P01116-2): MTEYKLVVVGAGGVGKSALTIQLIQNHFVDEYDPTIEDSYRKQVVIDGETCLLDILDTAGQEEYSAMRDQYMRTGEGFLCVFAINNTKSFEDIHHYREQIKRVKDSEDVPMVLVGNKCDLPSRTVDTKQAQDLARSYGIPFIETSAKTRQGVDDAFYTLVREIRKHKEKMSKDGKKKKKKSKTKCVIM
Sequence of KRAS WT-cRAF (P62937 whole entry): as the sequence (P62937 whole entry) above
Protocol for KRAS G12V-cRAF: (§3) The plate was centrifuged at 1000 rpm for 1 min and then incubated in the thermostatic incubator at 20 °C for 30 min. […] The plate was centrifuged at 1000 rpm for 1 min and then incubated in the thermostatic incubator at 20 °C for 60 min. […] The working solution was added to the aforementioned assay plate at 5 µL/well. The plate was centrifuged at 1000 rpm for 1 min and then incubated in the thermostatic incubator at 20 °C for 60 min.
Protocol for KRAS WT-cRAF: as §3

By solubility is commonly meant the dissolved amount per volume that the medium holds. Read a high solubility as a readily soluble substance. The term IC50 denotes the concentration at which inhibition is half-maximal. Take `COCCn1c(-c2cc(C#CCN3CCN(C(=O)CO)CC3)c[n+]([O-])c2[C@H](C)OC)c2c3cc(ccc31)-c1csc(n1)C[C@H](NC(=O)[C@H]1[C@H](C)[C@@H]1C)C(=O)N1CCC[C@H](N1)C(=O)OCC(C)(C)C2` (atropisomer, axis not shown; (Ra)) [Compound Z54, (Ra)-3-((6^3S,4S,Z)-4-((1r,2R,3S)-2,3-dimethylcyclopropane-1-carboxamido)-1^1-(2-methoxyethyl)-10,10-dimethyl-5,7-dioxo-6^1,6^2,6^3,6^4,6^5,6^6-hexahydro-11H-8-oxa-2(4,2)-thiazola-1(5,3)-indola-6(1,3)-pyridazinacyclodecaphane-1^2-yl)-5-(3-(4-(2-hydroxyacetyl)piperazin-1-yl)prop-1-yn-1-yl)-2-((S)-1-methoxyethyl)pyridine 1-oxide]: in series [1] (ph 7.4 medium), the solubility at 24 h turned out to be 36.2 µg/mL (≈ 38 µM). In addition, the IC50 came to 4.7 nM in the series with NCI-H441 cells, 12.1 nM at KRAS G12V-cRAF (setting [2]), 74.8 nM on KRAS WT-cRAF (setting [3]) and 14 nM in the series with AsPC-1 cells.
As for `CCn1c(-c2cc(C#CCN3CCN(C(=O)CN)CC3)cnc2C(C)OC)c2c3cc(ccc31)-c1csc(n1)CC(NC(=O)C1C3COCC31)C(=O)N1CCCC(N1)C(=O)OCC(C)(C)C2` (atropisomer, axis not shown; (Ra)) [Compound Z47, (1R,5S,6r)-N-((6^3S,4S,Z)-1^1-ethyl-(Ra)-1^2-(5-(3-(4-glycylpiperazin-1-yl)prop-1-yn-1-yl)-2-((S)-1-methoxyethyl)pyridin-3-yl)-10,10-dimethyl-5,7-dioxo-6^1,6^2,6^3,6^4,6^5,6^6-hexahydro-1^1H-8-oxa-2(4,2)-thiazola-1(5,3)-indola-6(1,3)-pyridazinacycloundecaphane-4-yl)-3-oxabicyclo[3.1.0]hexane-6-carboxamide], in series [1] (pH 7.4 medium), the concentration in solution (solubility at 24 h) came to 109 µg/mL (≈ 118 µM). The IC50 in the series with NCI-H441 cells was 0.75 nM; in the series with AsPC-1 p-ERK (setting [4]), 2.33 nM; in the series with H441 p-ERK, 0.58 nM; on KRAS G12V-cRAF (setting [5]), 19.3 nM; at KRAS WT-cRAF (setting [6]) it was 34.4 nM; with AsPC-1 cells, 1.2 nM.
With `CCn1c(-c2cc(C#CCN3CCN(C(=O)CO)CC3)cnc2C(C)OC)c2c3cc(ccc31)-c1csc(n1)CC(NC(=O)C1C(C)C1C)C(=O)N1CCCC(N1)C(=O)OCC(C)(C)C2` (atropisomer, axis not shown; (Ra)) [Compound Z6, (1r,2R,3S)-N-((6^3S,4S,Z)-1^1-ethyl-(Ra)-1^2-(5-(3-(4-(2-hydroxyacetyl)piperazin-1-yl)prop-1-yn-1-yl)-2-((S)-1-methoxyethyl)pyridin-3-yl)-10,10-dimethyl-5,7-dioxo-6^1,6^2,6^3,6^4,6^5,6^6-hexahydro-1^1H-8-oxa-2(4,2)-thiazola-1(5,3)-indola-6(1,3)-pyridazinacycloundecaphane-4-yl)-2,3-dimethylcyclopropane-1-carboxamide], the solubility at 24 h in series [1] (pH 7.4 medium) came to 7.8 µg/mL (≈ 8.6 µM). For the same compound, the IC50 is 0.28 nM with NCI-H441 cells; 0.15 nM with AsPC-1 p-ERK (setting [4]); 0.21 nM in the series on H441 p-ERK; 10.7 nM at KRAS G12V-cRAF (setting [5]); 19.2 nM on KRAS WT-cRAF (setting [6]); 0.31 nM in the series on AsPC-1 cells.
Take `CCn1c(-c2cc(C#CC(CO)N3CCS(=O)(=O)CC3)cnc2C(C)OC)c2c3cc(ccc31)-c1csc(n1)CC(NC(=O)C1C3COCC31)C(=O)N1CCCC(N1)C(=O)OCC(C)(C)C2` (atropisomer, axis not shown; (Ra)) [Compound Z40, (1R,5S,6r)-N-((6^3S,4S,Z)-(Ra)-1^2-(5-(3-(1,1-dioxidothiomorpholino)-4-hydroxybut-1-yn-1-yl)-(Ra)-2-((S)-1-methoxyethyl)-pyridin-3-yl)-1^1-ethyl-10,10-dimethyl-5,7-dioxo-6^1,6^2,6^3,6^4,6^5,6^6-hexahydro-1^1H-8-oxa-2(4,2)-thiazola-1(5,3)-indola-6(1,3)-pyridazinacycloundecaphane-4-yl)-3-oxabicyclo[3.1.0]hexane-6-carboxamide]: the solubility at 24 h in series [1] (pH 7.4 medium) was 5.1 µg/mL (≈ 5.41 µM). Besides, the IC50 in the series on NCI-H441 cells was found to be 0.4 nM; in the series with AsPC-1 p-ERK (setting [4]) it was 0.38 nM; in the series on H441 p-ERK it was 0.45 nM; at KRAS G12V-cRAF (setting [5]), 7.8 nM; on KRAS WT-cRAF (setting [6]), 14.3 nM; with AsPC-1 cells, 0.43 nM.
As to `CCn1c(-c2cc(C#CCN3CCN(C(=O)CO)CC3)c[n+]([O-])c2C(C)OC)c2c3cc(ccc31)-c1csc(n1)CC(NC(=O)C1C(C)C1C)C(=O)N1CCCC(N1)C(=O)OCC(C)(C)C2` (atropisomer, axis not shown; (Ra)) [Compound Z48, (Ra)-3-((6^3S,4S,Z)-4-((1r,2R,3S)-2,3-dimethylcyclopropane-1-carboxamido)-1^1-ethyl-10,10-dimethyl-5,7-dioxo-6^1,6^2,6^3,6^4,6^5,6^6-hexahydro-1^1H-8-oxa-2(4,2)-thiazola-1(5,3)-indola-6(1,3)-pyridazinacycloundecaphane-1^2-yl)-5-(3-(4-(2-hydroxyacetyl)piperazin-1-yl)prop-1-yn-1-yl)-2-((S)-1-methoxyethyl)pyridine 1-oxide], the solubility at 24 h in series [1] (pH 7.4 medium) is 71.2 µg/mL (≈ 77.1 µM). The IC50 in the series with NCI-H441 cells was 1.99 nM; with AsPC-1 p-ERK (setting [4]), 4.7 nM; in the series with H441 p-ERK, 1.66 nM; at KRAS G12V-cRAF (setting [5]), 9.05 nM; on KRAS WT-cRAF (setting [6]), 31.3 nM; in the series with AsPC-1 cells, 5.06 nM.
Turning to `CCn1c(-c2cc(C#CCN3CCN(C(=O)CO)CC3)cnc2C(C)OC)c2c3cc(ccc31)-c1coc(n1)CC(NC(=O)C1C3COCC31)C(=O)N1CCCC(N1)C(=O)OCC(C)(C)C2` (atropisomer, axis not shown; (Ra)) [Compound Z44, (1R,5S,6r)-N-((6^3S,4S,Z)-(Ra)-1^2-(5-(3-(4-(2-hydroxyacetyl)piperazin-1-yl)prop-1-yn-1-yl)-2-((S)-1-methoxyethyl)pyridin-3-yl)-1^1-ethyl-10,10-dimethyl-5,7-dioxo-6^1,6^2,6^3,6^4,6^5,6^6-hexahydro-1^1H-8-oxa-2(4,2)-oxazola-1(5,3)-indola-6(1,3)-pyridazinacycloundecaphane-4-yl)-3-oxabicyclo[3.1.0]hexane-6-carboxamide], in series [1] (pH 7.4 medium), the solubility at 24 h worked out at 55.8 µg/mL (≈ 61.6 µM). Moreover, the IC50 with NCI-H441 cells worked out at 0.38 nM; in the series with AsPC-1 p-ERK (setting [4]) it was 1.73 nM; in the series with H441 p-ERK, 0.42 nM; on KRAS G12V-cRAF (setting [5]), 11.8 nM; on KRAS WT-cRAF (setting [6]), 25.2 nM; in the series on AsPC-1 cells, 1.21 nM.
`COCCn1c(-c2cc(C#CCN3CCC(C#N)(CO)CC3)c[n+]([O-])c2C(C)OC)c2c3cc(ccc31)-c1csc(n1)CC(NC(=O)C1C(C)C1C)C(=O)N1CCCC(N1)C(=O)OCC(C)(C)C2` (atropisomer, axis not shown; (Ra)) [Compound Z42-1, 5-(3-(4-cyano-4-(hydroxymethyl)piperidin-1-yl)prop-1-yn-1-yl)-(Ra)-3-((6^3S,4S,Z)-4-((1r,2R,3S)-2,3-dimethylcyclopropane-1-carboxamido)-1^1-(2-methoxyethyl)-10,10-dimethyl-5,7-dioxo-6^1,6^2,6^3,6^4,6^5,6^6-hexahydro-1^1H-8-oxa-2(4,2)-thiazola-1(5,3)-indola-6(1,3)-pyridazinacycloundecaphane-1^2-yl)-2-((S)-1-methoxyethyl)pyridine 1-oxide] came in with a solubility at 24 h in series [1] (pH 7.4 medium) of 15.6 µg/mL (≈ 16.4 µM). Besides, the IC50 in the series with NCI-H441 cells came out at 0.65 nM; in the series on AsPC-1 p-ERK (setting [4]) it was 1.32 nM; in the series on H441 p-ERK, 1.8 nM; at KRAS G12V-cRAF (setting [5]) it was 9.9 nM; on KRAS WT-cRAF (setting [6]), 18.9 nM; in the series on AsPC-1 cells, 0.33 nM.
Turning to `CCn1c(-c2cc(C#CCN3CCN(C(=O)CN)CC3)cnc2[C@H](C)OC)c2c3cc(ccc31)-c1coc(n1)C[C@H](NC(=O)[C@H]1[C@@H]3COC[C@@H]31)C(=O)N1CCC[C@H](N1)C(=O)OCC(C)(C)C2` (atropisomer, axis not shown; (Ra)) [Compound Z167, (1R,5S,6r)-N-((6^3S,4S,Z)-1^2-(5-(3-(4-glycylpiperazin-1-yl)prop-1-yn-1-yl)-(Ra)-2-((S)-1-methoxyethyl)pyridin-3-yl)-1^1-ethyl-10,10-dimethyl-5,7-dioxo-6^1,6^2,6^3,6^4,6^5,6^6-hexahydro-1^1H-8-oxa-2(4,2)-oxazola-1(5,3)-indola-6(1,3)-pyridazinacycloundecaphane-4-yl)-3-oxabicyclo[3.1.0]hexane-6-carboxamide], the solubility at 24 h in series [1] (ph 7.4 medium) came to 363 µg/mL (≈ 401 µM). Further, the IC50 with AsPC-1 p-ERK (ASPC1, 3 h, read-out: AsPC-1 p-ERK IC50(nM)) came to 1.64 nM; in the series with H441 p-ERK it was 1.27 nM; at KRAS G12V-cRAF (setting [2]), 13.9 nM; on KRAS WT-cRAF (setting [3]) it was 40.9 nM.
